Results from the supplement of paper PMC8612539.

System: Escherichia coli
Experiment: minimum inhibitory concentration (MIC)
Experimental: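 Broth microdilution MIC (Sensititre BOPO7F bovine plate, CLSI methods) of 19 antimicrobials against field isolates of P. multocida, M. haemolytica, H. somni (deep nasopharyngeal swabs) and E. coli, Enterococcus spp. (rectal swabs) from weaned dairy heifers. Incubation 16-24 h at 35 C. MIC is the lowest concentration preventing visible growth. Values with <= or > lie at the tested range limits. Trimethoprim-sulfamethoxazole is given as the trimethoprim component of a 1:19 mixture.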

Measured: minimum inhibitory concentration

CC[C@H]1OC(=O)C[C@@H](O)[C@H](C)[C@@H](O[C@@H]2O[C@H](C)[C@@H](O[C@H]3C[C@@](C)(O)[C@@H](O)[C@H](C)O3)[C@H](N(C)C)[C@H]2O)[C@@H](CC=O)C[C@@H](C)C(=O)/C=C/C(C)=C/[C@@H]1CO[C@@H]1O[C@H](C)[C@@H](O)[C@@H](OC)[C@H]1OC [Tylosin]
> 32 µg/mL: isolate (source animal id): 8 | isolate (source animal id): 9 | isolate (source animal id): 10 | isolate (source animal id): 11 | isolate (source animal id): 12 | isolate (source animal id): 13 | isolate (source animal id): 14 | isolate (source animal id): 15 | isolate (source animal id): 16 | isolate (source animal id): 98 | isolate (source animal id): 99 | isolate (source animal id): 100 | isolate (source animal id): 101 | isolate (source animal id): 102 | isolate (source animal id): 103 | isolate (source animal id): 104 | isolate (source animal id): 105 | isolate (source animal id): 106 | isolate (source animal id): 107 | isolate (source animal id): 108 | isolate (source animal id): 109 | isolate (source animal id): 110 | isolate (source animal id): 111 | isolate (source animal id): 112 | isolate (source animal id): 113 | isolate (source animal id): 114 | isolate (source animal id): 115 | isolate (source animal id): 116 | isolate (source animal id): 117 | isolate (source animal id): 118 | isolate (source animal id): 119 | isolate (source animal id): 120 | isolate (source animal id): 121 | isolate (source animal id): 122 | isolate (source animal id): 123 | isolate (source animal id): 124 | isolate (source animal id): 125 | isolate (source animal id): 126 | isolate (source animal id): 127 | isolate (source animal id): 128 | isolate (source animal id): 129 | isolate (source animal id): 130 | isolate (source animal id): 131 | isolate (source animal id): 132 | isolate (source animal id): 133 | isolate (source animal id): 134 | isolate (source animal id): 135 | isolate (source animal id): 136 | isolate (source animal id): 137 | isolate (source animal id): 138 | isolate (source animal id): 139 | isolate (source animal id): 140 | isolate (source animal id): 141 | isolate (source animal id): 142 | isolate (source animal id): 143 | isolate (source animal id): 144 | isolate (source animal id): 145 | isolate (source animal id): 146 | isolate (source animal id): 147 | isolate (source animal id): 148 | isolate (source animal id): 149 | isolate (source animal id): 150 | isolate (source animal id): 151 | isolate (source animal id): 152 | isolate (source animal id): 153 | isolate (source animal id): 154 | isolate (source animal id): 155 | isolate (source animal id): 156 | isolate (source animal id): 157 | isolate (source animal id): 158 | isolate (source animal id): 159 | isolate (source animal id): 160 | isolate (source animal id): 161 | isolate (source animal id): 162 | isolate (source animal id): 163 | isolate (source animal id): 164 | isolate (source animal id): 165 | isolate (source animal id): 166 | isolate (source animal id): 167 | isolate (source animal id): 168 | isolate (source animal id): 169 | isolate (source animal id): 170 | isolate (source animal id): 171 | isolate (source animal id): 172 | isolate (source animal id): 173 | isolate (source animal id): 174 | isolate (source animal id): 175 | isolate (source animal id): 176 | isolate (source animal id): 177 | isolate (source animal id): 178 | isolate (source animal id): 179 | isolate (source animal id): 180 | isolate (source animal id): 181 | isolate (source animal id): 182 | isolate (source animal id): 183 | isolate (source animal id): 184 | isolate (source animal id): 185 | isolate (source animal id): 186 | isolate (source animal id): 187 | isolate (source animal id): 188
